Test results as given in patent US11931376B1, “Methods for the treatment of chronic kidney disease” (RENATUS INC., priority 2022, dated 2024).

Legend:
[1] = test system: macrophage cell line (Raw264.7); test: Cell viability assay (CCK-8); format: cell-based; settings: cyclodextrin 20 mg/ml, 24 hours, 37° C.
Protocol: The cells were seeded in a 96-well plate at a density of 5×10^4 cells and 24 hours later cyclodextrin were treated at a concentration of 20 mg/ml for 24 hours at 37° C. CCK-8 agent was added, 10 μl per well. After 3 hours, absorbance at 450 nm was measured to assess cellular viability.

[2] = test system: red blood cells (whole blood); test: Hemolysis assay; format: cell-based, C57/BL6 mice; settings: cyclodextrin 50 mg/ml, 1 hour, 37° C., absorbance at 540 nm
Protocol: Whole blood from wilt-type C57/BL6 mice was used for assessment of hemolytic activity of cyclodextrins. The whole blood samples (300 μl) were mixed with each cyclodextrin at a concentration of 50 mg/ml and incubated for 1 hour at 37° C. After centrifugation at 3,000 g for 5 minutes, the absorbance at 540 nm of the supernatant was measured.

[3] = test system: Murine mesangial cells; test: Cholesterol efflux in kidney mesangial cells (flow cytometry); format: cell-based, C57BL/6 mice; settings: mesangial cells loaded with NBD-CC for 3 hours, cyclodextrin 5 mg/ml
Protocol: Murine mesangial cells derived from the kidney of wild-type C57BL/6 mice were maintained in DMEM, 10% fetal bovine serum (FBS), 100 U/ml penicillin G, 100 μg/ml streptomycin, and 2 mM L-glutamine. The cells were seeded at a density of 10^6 cells/well one day before treatment with NBD-CC. The cells were treated with 100 μg of NBD-CC per 10^6 cells for 3 hours and then washed thoroughly twice. Then, cyclodextrins were treated at a concentration of 5 mg/ml. For the assessment of cholesterol efflux and efflux-mediating proteins ABCA1 and ABCG1, flow cytometry was performed.

[4] = test system: albuminuria; test: Albuminuria in diabetic kidney disease mouse model; format: in vivo, db/db mice; settings: subcutaneous 2 g/kg twice a week for 4 weeks
Protocol: To investigate the effects of cyclodextrins on albuminuria, 8-week-old male db/db mice were used to model diabetes type II, which is susceptible to albuminuria. In the experimental setup, Oligo-GCD (4103 Da), Oligo-HPGCD (3825 Da) and HPBCD-B were subcutaneously injected at a dose of 2 g/kg twice a week for 4 weeks. Control mice were given PBS only. After the treatment is completed, 24-hour urine samples were collected and the concentration of albumin in the urine was measured (FIG. 8A).

Row | Structure (SMILES) | cell viability [1] | hemolytic activity [2] | cellular cholesterol content [3] | ACR reduction compared to control [4] | albumin/creatinine ratio (ACR) ([4]; urine at end of week 4)
1 | CC(O)COC[C@H]1O[C@@H]2O[C@H]3[C@H](O)[C@@H](O)[C@@H](O[C@H]4[C@H](O)[C@@H](O)[C@@H](O[C@H]5[C@H](O)[C@@H](O)[C@@H](O[C@H]6[C@H](O)[C@@H](O)[C@@H](O[C@H]7[C@H](O)[C@@H](O)[C@@H](O[C@H]8[C@H](O)[C@@H](O)[C@@H](O[C@H]1[C@H](O)[C@H]2O)O[C@@H]8COCC(C)O)O[C@@H]7COCC(C)O)O[C@@H]6COCC(C)O)O[C@@H]5COCC(C)O)O[C@@H]4COCC(C)O)O[C@@H]3COCC(C)O (single isomer, unassigned) [HPBCD-A, hydroxypropyl-beta-cyclodextrin] | induce cell viability loss | disrupt the plasma membrane and induce hemolysis | 54.1% |  | 
2 | CC(O)COC[C@H]1O[C@@H]2O[C@H]3[C@H](O)[C@@H](O)[C@@H](O[C@H]4[C@H](O)[C@@H](O)[C@@H](O[C@H]5[C@H](O)[C@@H](O)[C@@H](O[C@H]6[C@H](O)[C@@H](O)[C@@H](O[C@H]7[C@H](O)[C@@H](O)[C@@H](O[C@H]8[C@H](O)[C@@H](O)[C@@H](O[C@H]1[C@H](O)[C@H]2O)O[C@@H]8COCC(C)O)O[C@@H]7COCC(C)O)O[C@@H]6COCC(C)O)O[C@@H]5COCC(C)O)O[C@@H]4COCC(C)O)O[C@@H]3COCC(C)O (single isomer, unassigned) [HPBCD-B, hydroxypropyl-beta-cyclodextrin] | induce cell viability loss | disrupt the plasma membrane and induce hemolysis | 48.2% | 22.6% | 190.9 µg/mg
3 | CC(O)COC[C@H]1O[C@@H]2O[C@H]3[C@H](O)[C@@H](O)[C@@H](O[C@H]4[C@H](O)[C@@H](O)[C@@H](O[C@H]5[C@H](O)[C@@H](O)[C@@H](O[C@H]6[C@H](O)[C@@H](O)[C@@H](O[C@H]7[C@H](O)[C@@H](O)[C@@H](O[C@H]8[C@H](O)[C@@H](O)[C@@H](O[C@H]1[C@H](O)[C@H]2O)O[C@@H]8COCC(C)O)O[C@@H]7COCC(C)O)O[C@@H]6COCC(C)O)O[C@@H]5COCC(C)O)O[C@@H]4COCC(C)O)O[C@@H]3COCC(C)O (single isomer, unassigned) [HPBCD-C, hydroxypropyl-beta-cyclodextrin] | induce cell viability loss | disrupt the plasma membrane and induce hemolysis | 50.5% |  | 
